The values below are quoted from earlier work in patent US20210319872A1, “DRUG AND DEVICE COMBINATION PRODUCTS WITH IMPROVED SAFETY AND EFFICACY PROFILES” (priority 2016, published 2021).

Read-outs that look alike come from different tables or passages of the source.

`Fc1ccc([C@@H]2CCNC[C@H]2COc2ccc3c(c2)OCO3)cc1` [Paroxetine (Paxil)]: under “in vivo”, the Abnormal ejaculation entry was “Reproductive: Abnormal ejaculation (13% to 28%), Erectile”; the Asthenia result is “Neurologic: Asthenia (up to 22%), Dizziness (6% to 14%),”; the Constipation result is on record as “Gastrointestinal: Constipation (up to 16%), Diarrhea (up to 18%),”; the Diaphoresis result is on record as “Dermatologic: Diaphoresis (5% to 14%)”. In addition, where the note is “in vivo”, the Diarrhea result is reported as “Gastrointestinal: Constipation (up to 16%), Diarrhea (up to 18%),”; the Dizziness entry is “Neurologic: Asthenia (up to 22%), Dizziness (6% to 14%),”; the Erectile dysfunction entry was “dysfunction (2% to 9%), Orgasm disorder (females; 2% to 9%),”; the Headache entry was “Headache (17% to 27%), Insomnia (up to 24%), Somnolence (up to”. For the same molecule, for the setting “in vivo”, the Nausea result was “Loss of appetite (up to 9%), Nausea (up to 26%), Xerostomia (9%”; the Orgasm disorder result is given as “dysfunction (2% to 9%), Orgasm disorder (females; 2% to 9%),”; the Palpitations entry was “Cardiovascular: Palpitations (up to 3%), Vasodilatation (2% to 4%)”; the Reduced libido entry is on record as “Reduced libido (males: 6% to 15%; females: 0% to 9%)”. Besides, for the setting “in vivo”, the Seizure result is listed as “Neurologic: Seizure (0.1%)”; the Somnolence is ≤ 24%), Tremor (4% to 11%); the Tremor was 24%), Tremor (4% to 11%); the Vasodilatation result is recorded as “Cardiovascular: Palpitations (up to 3%), Vasodilatation (2% to 4%)”. Also, where the note is “in vivo”, the Xerostomia result was “Loss of appetite (up to 9%), Nausea (up to 26%), Xerostomia (9%” and the Yawning entry is “Respiratory: Yawning (4%)”.
Consider `CCOC(=O)[C@H](CCc1ccccc1)N[C@@H](C)C(=O)N1Cc2ccccc2C[C@H]1C(=O)O` [Quinapril (Accupril)], for which, for the setting “in vivo”, the Chest pain entry is on record as “Cardiovascular: Chest pain (2.4%), Hypotension (2.9%)”; the Cough entry is “Respiratory: Cough (2% to 4.3%)”; the Dizziness result is “Neurologic: Dizziness (3.9% to 7.7%), Headache (1.7% to 6.9%)”; the Fatigue result was “Other: Fatigue (2.6%)”. For the same molecule, under “in vivo”, the Headache entry is “Neurologic: Dizziness (3.9% to 7.7%), Headache (1.7% to 6.9%)”; the Hypotension entry is “Cardiovascular: Chest pain (2.4%), Hypotension (2.9%)”; the Nausea and vomiting result was “Gastrointestinal: Nausea and vomiting (1.4% to 2.4%)”; the “Serum blood urea nitrogen raised” value is reported as “Renal: Serum blood urea nitrogen raised (2% to 8%), Serum”. Where the note is “in vivo”, the Serum creatinine raised result is “creatinine raised (2% to 11%)”.
Consider `CC#CCn1c(N2CCC[C@@H](N)C2)nc2c1c(=O)n(Cc1nc(C)c3ccccc3n1)c(=O)n2C` [Tradjenta], for which the Hypoglycemia result reads like this: (combination therapy) “combination therapy, 22.9%)”; (monotherapy) “Endocrine metabolic: Hypoglycemia (monotherapy, 6.6%;”. Also, under “in vivo”, the Nasopharyngitis result is reported as “Respiratory: Nasopharyngitis (7%)”.
For the molecule `CCOC(=O)[C@H](CCc1ccccc1)N[C@H]1CCc2ccccc2N(CC(=O)O)C1=O` [Benazepril (Lotensin)], where the note is “in vivo”, the “Angioedema, head and neck” value was “Other: Angioedema, head and neck (0.5%)”; the Cough result is “Respiratory: Cough (1.2%)”; the Dizziness entry is on record as “Neurologic: Dizziness (3.6%), Headache (6.2%)”; the Fatigue entry is “Other: Fatigue (2.4%)”. Besides, for the setting “in vivo”, the Headache result is “Neurologic: Dizziness (3.6%), Headache (6.2%)” and the Stevens-Johnson syndrome entry is recorded as “Dermatologic: Stevens-Johnson syndrome (less than 1%)”.
Consider `O=C1CCC(N2C(=O)c3ccccc3C2=O)C(=O)N1` (stereo not shown) [Thalomid], for which, for the setting “erythema nodosum leprosum”, the Nausea is given as 4.2%; the Rash result is recorded as “nodosum leprosum, 20.8%)”; the Tremor entry is listed as “Tremor (erythema nodosum leprosum, 4.2%; multiple myeloma,”. Moreover, under “in vivo”, the Ischemic heart disease is 11.1% and the Myocardial infarction entry is “Myocardial infarction (1.3%)”. For the setting “listed without frequency”, the “Serious side effect, Cardiovascular” value is reported as “Cardiac dysrhythmia”. Further, under “multiple myeloma”, the Asthenia was 21.9%; multiple myeloma, 24%), Confusional state (multiple; the “Atrial fibrillation, Grade 3/4” value was 5%; the Confusional state is on record as 28%; the Dizziness is 19.2%; multiple myeloma, 23%), Somnolence (erythema nodosum. Further, where the note is “multiple myeloma”, the Dry skin entry is on record as “Dermatologic: Dry skin (multiple myeloma, 21%), Rash (erythema”; the Dyspnea result was “Respiratory: Dyspnea (multiple myeloma, 42%), Pneumonia”; the Fever is 24%; the Hypocalcemia entry was “Endocrine metabolic: Hypocalcemia (multiple myeloma, 72%),”. For the same molecule, for the setting “multiple myeloma”, the Indigestion was 11%; the Leukopenia entry was “multiple myeloma, 35%)”; the Muscle weakness entry is reported as “Musculoskeletal: Muscle weakness (multiple myeloma, 40%)”; the Peripheral edema entry was “multiple myeloma, 34%)”. Also, under “multiple myeloma”, the Pneumonia entry is “(multiple myeloma, 15%)”; the Somnolence was at least 3%; the Tremor was 26%); the Weight loss result is “(multiple myeloma, 23%)”.
As to `Cc1cc2c(s1)Nc1ccccc1N=C2N1CCN(C)CC1` [Olanzapine (Zyprexa)], where the note is “in vivo”, the Akathisia entry is reported as “Neurologic: Akathisia (5% to 27%), Asthenia (2% to 20%),”; the Asthenia entry was “Neurologic: Akathisia (5% to 27%), Asthenia (2% to 20%),”; the Constipation result is recorded as “Gastrointestinal: Constipation (4% to 11%), Xerostomia (Adult, up”; the Dizziness entry is recorded as “Dizziness (Adult, 1.6% to 18%; adolescent, 7% to 8%),”. For the setting “in vivo”, the Hyperprolactinemia entry is recorded as “adolescent, up to 14%), Hyperprolactinemia (30% to 61.1%),”; the Increased appetite entry was “Increased appetite (Adult, 3% to 24%; adolescent, 17% to 29%),”; the Orthostatic hypotension entry was “Cardiovascular: Orthostatic hypotension (More than 5%),”; the Peripheral edema entry is recorded as “Peripheral edema (3% to 6%)”. For the setting “in vivo”, the Personality disorder entry was “Psychiatric: Personality disorder (8%)”; the Serum triglycerides raised entry is on record as “Serum triglycerides raised (20.8% to 40%), Weight increased, 7%”; the Somnolence result is “Somnolence (IM, 6%; oral, 20% to 52%), Tremor (1% to 23%)”; the Tremor entry is recorded as “Somnolence (IM, 6%; oral, 20% to 52%), Tremor (1% to 23%)”. Where the note is “in vivo, po”, the Somnolence result was “Somnolence (IM, 6%; oral, 20% to 52%), Tremor (1% to 23%)”.
As for `CC1(C)O[C@@H]2[C@@H](CO[C@@]3(COS(N)(=O)=O)OC(C)(C)O[C@@H]23)O1` [Trokendi XR], the Hyperammonemia result (Adolescents) was “Endocrine metabolic: Hyperammonemia (Adolescents, 26%),”. Further, under “listed without frequency”, the “Serious side effect, Hepatic” value is given as “Hepatic: Liver failure”; the “Serious side effect, Neurologic” value was “Neurologic: Drug-induced encephalopathy”; the “Serious side effect, Psychiatric” value is “Psychiatric: Suicidal thoughts”. Under “pediatrics”, the Flushing result is recorded as “Dermatologic: Flushing (pediatrics, 5%)”.
As to `CN1CCc2nc(C(=O)N[C@@H]3C[C@@H](C(=O)N(C)C)CC[C@@H]3NC(=O)C(=O)Nc3ccc(Cl)cn3)sc2C1` [Edoxaban (Savaysa)], under “in vivo”, the “Bleeding, Major” value was 3.1%; DVT or pulmonary embolism, 1.4%); the Hemorrhagic cerebral infarction result is on record as “fibrillation, 0.3%), Intracranial hemorrhage (Nonvalvular atrial”; the Interstitial lung disease is listed as 0.2%); the Intracranial hemorrhage result was “fibrillation, 0.5%; DVT or pulmonary embolism, 0.1%)”. Moreover, where the note is “in vivo”, the “Liver function tests abnormal” value is “fibrillation, 4.8%; DVT or pulmonary embolism, 7.8%)” and the Rash entry is “Dermatologic: Rash (3.6% to 4.2%)”.
For `COc1ccc2c3c1O[C@H]1C(=O)CC[C@H]4[C@@H](C2)N(C)CC[C@]314` [Hydrocodone, reference compound], where the note is “in vivo”, the Abdominal pain entry is on record as “Gastrointestinal: Abdominal pain (1% to less than 5%),”; the Constipation result is listed as “Constipation (3% to 11%), Nausea (7% to 10%), Vomiting (3% to”; the Difficulty swallowing result is “Gastrointestinal: Difficulty swallowing (less than 1%)”; the Dizziness entry is recorded as “Neurologic: Dizziness (2% to 3%), Headache (2% to 4%),”. Where the note is “in vivo”, the Fatigue result was “Other: Fatigue (1% to 4%)”; the Headache entry is on record as “Neurologic: Dizziness (2% to 3%), Headache (2% to 4%),”; the Hypotension result is given as “Cardiovascular: Hypotension (less than 1%), Orthostatic”; the Opioid withdrawal entry was “Opioid withdrawal (less than 1%)”. Moreover, under “in vivo”, the Orthostatic hypotension result is “hypotension (less than 1%), Prolonged QT interval, Syncope”; the Peripheral edema result was “Cardiovascular: Peripheral edema (1% to less than 5%%)”; the Pruritus entry is listed as “Dermatologic: Pruritus (0% to less than 5%)”; the “Serious side effect, Cardiovascular” value is recorded as “hypotension (less than 1%), Prolonged QT interval, Syncope”. Also, where the note is “in vivo”, the “Serious side effect, Neurologic” value is “Neurologic: Raised intracranial pressure, Seizure”; the “Serious side effect, Other” value is recorded as “Other: Drug withdrawal syndrome in neonate of dependent mother,”; the “Serious side effect, Respiratory” value was “Respiratory: Respiratory depression”; the Somnolence result is listed as “Somnolence (1% to 5%), Tremor (3%)”. For the same molecule, under “in vivo”, the Spasm entry is reported as “Musculoskeletal: Spasm (1% to less than 5%)”; the Tremor entry is “Somnolence (1% to 5%), Tremor (3%)”; the Upper respiratory infection result is on record as “Respiratory: Upper respiratory infection (1% to 3%)”; the “Urinary tract infectious disease” value is given as “Renal: Urinary tract infectious disease (1% to 5%)”. Also, the Xerostomia (in vivo) is 6%), Xerostomia (1% to less than 5%).
